Patent US10851064B2, “ACSS2 inhibitors and methods of use thereof” (METABOMED LTD., priority 2017, dated 2020)
“And” between values parts separate entries of the source, which are not always exact repeats. Equal values may be shown once.

molecular target: ACSS2 (Homo sapiens, UniProt Q9NR19); assay: biochemical
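Also: Cell-free human ACSS2 enzyme reaction with acetate, CoA and ATP, 90 min at 37 C, coupled to pyrophosphatase, phosphate release detected by Biomol Green absorbance at 620 nm.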

ACSS2, sequence (Q9NR19 whole entry): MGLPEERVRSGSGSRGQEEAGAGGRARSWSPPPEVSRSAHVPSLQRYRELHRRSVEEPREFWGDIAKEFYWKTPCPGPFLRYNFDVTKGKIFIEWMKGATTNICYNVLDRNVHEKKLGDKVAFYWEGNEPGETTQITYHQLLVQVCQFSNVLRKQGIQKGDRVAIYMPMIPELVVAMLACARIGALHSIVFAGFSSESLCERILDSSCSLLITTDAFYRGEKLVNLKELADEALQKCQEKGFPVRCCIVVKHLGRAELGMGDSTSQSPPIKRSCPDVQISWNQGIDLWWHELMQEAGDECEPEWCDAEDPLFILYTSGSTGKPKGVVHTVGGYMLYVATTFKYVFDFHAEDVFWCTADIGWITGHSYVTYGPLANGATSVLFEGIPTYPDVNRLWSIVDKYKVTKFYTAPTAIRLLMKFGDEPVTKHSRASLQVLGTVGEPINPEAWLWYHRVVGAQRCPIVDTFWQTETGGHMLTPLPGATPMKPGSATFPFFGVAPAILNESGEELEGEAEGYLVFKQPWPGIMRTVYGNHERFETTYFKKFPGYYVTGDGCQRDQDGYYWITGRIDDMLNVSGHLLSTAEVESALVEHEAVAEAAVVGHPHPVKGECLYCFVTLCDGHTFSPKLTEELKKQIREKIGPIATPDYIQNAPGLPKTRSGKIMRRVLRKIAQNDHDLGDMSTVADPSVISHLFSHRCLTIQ

Row | Compound | IC50
1 | CCc1cccc(NC(=O)C2C(=O)N(c3ccccc3)N=C2Cc2ccccc2)c1 (stereo not shown) [compound 129, 3-benzyl-N-(3-ethylphenyl)-5-oxo-1-phenyl-4,5-dihydro-1H-pyrazole-4-carboxamide] | 1000 to 100000 nM
2 | CC(=O)NS(=O)(=O)c1cccc(N2N=C(C)C(C(=O)Nc3cccc(C(C)(F)F)c3)C2=O)c1 (stereo not shown) [compound 293] | 6 to 100 nM
3 | CC1=NN(c2ccncc2)C(=O)C1C(=O)Nc1ccccc1 (stereo not shown) [compound 193, 3-methyl-5-oxo-N-phenyl-1-(pyridin-4-yl)-4,5-dihydro-1H-pyrazole-4-carboxamide] | > 100000 nM
4 | CC1=NN(c2ccc(OC3CCCC3)cc2)C(=O)C1C(=O)Nc1cccc(C(C)(F)F)c1 (stereo not shown) [compound 446] | 0.01 to 6 nM
5 | CC1=NN(c2ccccc2)C(=O)C1C(=O)Nc1cccc(CC(C)C)c1 (stereo not shown) [compound 147, N-(3-isobutylphenyl)-3-methyl-5-oxo-1-phenyl-4,5-dihydro-1H-pyrazole-4-carboxamide] | 100 to 1000 nM
6 | CC1=NN(c2ccc(OC(F)F)cc2F)C(=O)C1C(=O)Nc1cccc(C(C)(F)F)c1 (stereo not shown) [compound 456] | 0.01 to 6 nM
7 | CC1=NN(c2ccccc2)C(=O)C1C(=O)Nc1cccc(-c2ccncc2)c1 (stereo not shown) [compound 104, 3-methyl-5-oxo-1-phenyl-N-(3-(pyridin-4-yl)phenyl)-4,5-dihydro-1H-pyrazole-4-carboxamide] | 1000 to 100000 nM
8 | CCc1cccc(NC(=O)c2c(C)nn(-c3ccc(NC)cc3)c2OC(=O)N(C)C)c1 [compound 224, 4-((3-ethylphenyl)carbamoyl)-3-methyl-1-(4-(methylamino)phenyl)-1H-pyrazol-5-yl dimethylcarbamate] | 1000 to 100000 nM
9 | CC1=NN(c2ccc3[nH]cnc3c2)C(=O)C1C(=O)Nc1cccc(C(C)(F)F)c1 (stereo not shown) [compound 405] | 6 to 100 nM
10 | CC1=NN(c2ccncc2)C(=O)C1C(=O)Nc1cccc(-c2ncc[nH]2)c1 (stereo not shown) [compound 233] | 100 to 1000 nM
11 | N#Cc1ccc(OCCNC(=O)C(N)c2ccccc2)cc1 (stereo not shown) [compound 180] | > 100000 nM
12 | Cc1nn(-c2ccc(OC(F)F)cc2)cc1C(=O)Nc1cccc(C(C)(F)F)c1 [compound 338] | 6 to 100 nM
13 | COc1cccc(NC(=O)C2C(=O)N(c3ccccc3)N=C2C)c1 (stereo not shown) [compound 211, N-(3-methoxyphenyl)-3-methyl-5-oxo-1-phenyl-4,5-dihydro-1H-pyrazole-4-carboxamide] | 6 to 100 nM
14 | CC1=NN(c2ccccc2)C(=O)C1C(=O)Nc1cccc(-c2ccccc2)c1 (stereo not shown) [compound 102, N-([1,1′-biphenyl]-3-yl)-3-methyl-5-oxo-1-phenyl-4,5-dihydro-1H-pyrazole-4-carboxamide] | 100 to 1000 nM
15 | COc1ccc(N2N=C(C)C(C(=O)Nc3cccc(C(C)(F)F)c3)C2=O)cc1O (stereo not shown) [compound 281] | 0.01 to 6 nM
16 | CCC(C)Oc1ccc(N2N=C(C)C(C(=O)Nc3cccc(C(C)(F)F)c3)C2=O)cc1 (stereo not shown) [compound 444] | 0.01 to 6 nM
17 | CC1=NN(c2ccc(OC(F)F)cc2)C(=O)C1C(=O)Nc1cc(C(C)(F)F)cc2c1COC2 (stereo not shown) [compound 397] | 100 to 1000 nM and 6 to 100 nM
18 | CC1=NN(c2ccc(OC(C)(C)C)cc2)C(=O)C1C(=O)Nc1cccc(C(C)(F)F)c1 (stereo not shown) [compound 441] | 0.01 to 6 nM
19 | COc1ccc(N2N=C(C)C(C(=O)Nc3cccc(C(C)(F)F)c3)C2=O)c(C(C)(C)C)c1 (stereo not shown) [compound 460] | 0.01 to 6 nM
20 | CC1=NN(c2ccccc2)C(=O)C1C(=O)Nc1cccc(C(=O)O)c1 (stereo not shown) [compound 116, 3-(3-methyl-5-oxo-1-phenyl-4,5-dihydro-1H-pyrazole-4-carboxamido)benzoic acid] | 1000 to 100000 nM

Row | Compound | IC50
21 | CC1=NN(c2ccc(OC(F)F)c(-c3cncnc3)c2)C(=O)C1C(=O)Nc1cccc(C(C)(F)F)c1 (stereo not shown) [compound 449] | 0.01 to 6 nM
22 | CC1=NN(c2cc(Cc3ccc(Cl)cc3)cc(-c3cccnc3)c2)C(=O)C1C(=O)Nc1cccc(C(C)(F)F)c1 (stereo not shown) [compound 384] | 6 to 100 nM
23 | CCCOc1ccc(N2N=C(C)C(C(=O)Nc3cccc(C(C)(F)F)c3)C2=O)cc1 (stereo not shown) [compound 448] | 0.01 to 6 nM
24 | CCCn1ccc2ccc(N3N=C(C)C(C(=O)Nc4cccc(C(C)(F)F)c4)C3=O)cc21 (stereo not shown) [compound 363] | 0.01 to 6 nM
25 | CC1=NN(c2cc(Cc3ccccc3OCc3ccccc3)cc(-c3cccnc3)c2)C(=O)C1C(=O)Nc1cccc(C(C)(F)F)c1 (stereo not shown) [compound 365] | 6 to 100 nM
26 | CC1=NN(c2ccc(C(F)(F)F)cc2)C(=O)C1C(=O)Nc1cccc(-c2ccco2)c1 (stereo not shown) [compound 162, N-(3-(furan-2-yl)phenyl)-3-methyl-5-oxo-1-(4-(trifluoromethyl)phenyl)-4,5-dihydro-1H-pyrazole-4-carboxamide] | 6 to 100 nM
27 | CCC(F)(F)c1cccc(NC(=O)C2C(=O)N(c3ccc(OC)c(-c4ccccc4)c3)N=C2C)c1 (stereo not shown) [compound 368] | 0.01 to 6 nM
28 | CC1=NN(c2ccc(C(F)(F)F)cc2)C(=O)C1C(=O)Nc1cccc(-c2ncco2)c1 (stereo not shown) [compound 270] | 100 to 1000 nM
29 | CC(=O)c1cccc(NC(=O)C2C(=O)N(c3ccc(C(=O)O)cc3)N=C2C)c1 (stereo not shown) [compound 120, 4-(4-((3-acetylphenyl)carbamoyl)-3-methyl-5-oxo-4,5-dihydro-1H-pyrazol-1-yl)benzoic acid] | 100 to 1000 nM
30 | CC1=NN(c2ccccc2)C(=O)C1C(=O)Nc1cccc(-c2cncnc2)c1 (stereo not shown) [compound 132, 3-methyl-5-oxo-1-phenyl-N-(3-(pyrimidin-5-yl)phenyl)-4,5-dihydro-1H-pyrazole-4-carboxamide] | 100 to 1000 nM
31 | CC1=NN(c2ccc3ccn(Cc4ccccc4)c3c2)C(=O)C1C(=O)Nc1cccc(C(C)(F)F)c1 (stereo not shown) [compound 367] | 0.01 to 6 nM
32 | CC1=NN(c2ccccc2)C(=O)C1C(=O)NC1CCOC1 (stereo not shown) [compound 106, 3-methyl-5-oxo-1-phenyl-N-(tetrahydrofuran-3-yl)-4,5-dihydro-1H-pyrazole-4-carboxamide] | > 100000 nM
33 | CC1=NN(c2ccc(OC(F)F)c(-c3nnc(C)[nH]3)c2)C(=O)C1C(=O)Nc1cccc(C(C)(F)F)c1 (stereo not shown) [compound 371] | 0.01 to 6 nM
34 | CC1=NN(c2ccncc2)C(=O)C1C(=O)Nc1cccc(-c2ccco2)c1 (stereo not shown) [compound 240] | 6 to 100 nM
35 | CC1=NN(c2ccc(OC(F)F)c(-c3ncco3)c2)C(=O)C1C(=O)Nc1cccc(C(C)(F)F)c1 (stereo not shown) [compound 355] | 0.01 to 6 nM
36 | CC1=NN(c2ccccc2)C(=O)C1C(=O)Nc1ccc(S(=O)(=O)N(C)C)cc1 (stereo not shown) [compound 105, N-(4-(N,N-dimethylsulfamoyl)phenyl)-3-methyl-5-oxo-1-phenyl-4,5-dihydro-1H-pyrazole-4-carboxamide] | 1000 to 100000 nM
37 | COc1c(-c2ccccc2)cc(N2N=C(C)C(C(=O)Nc3cccc(C(C)(F)F)c3)C2=O)cc1-c1ccccc1 (stereo not shown) [compound 402] | 6 to 100 nM
38 | CC1=NN(c2ccc3ccn(C)c3c2)C(=O)C1C(=O)Nc1cccc(C(C)(F)F)c1 (stereo not shown) [compound 366] | 0.01 to 6 nM
39 | CCOC(=O)c1cccc(NC(=O)C2C(=O)N(c3ccccc3)N=C2C)c1 (stereo not shown) [compound 113, Ethyl 3-(3-methyl-5-oxo-1-phenyl-4,5-dihydro-1H-pyrazole-4-carboxamido)benzoate] | 6 to 100 nM
40 | CC1=NN(c2cc(Cc3ccccc3)cc(-c3ccccc3)c2)C(=O)C1C(=O)Nc1cccc(C(C)(F)F)c1 (stereo not shown) [compound 387] | 0.01 to 6 nM

Row | Compound | IC50
41 | COc1ccc(N2N=C(C)C(C(=O)Nc3cccc(C(C)(F)F)c3)C2=O)cc1-c1nnc(C)[nH]1 (stereo not shown) [compound 385] | 6 to 100 nM
42 | CCOC(=O)c1cc(NC(=O)C2C(=O)N(c3ccccc3)N=C2C)ccn1 (stereo not shown) [compound 135, ethyl 4-(3-methyl-5-oxo-1-phenyl-4,5-dihydro-1H-pyrazole-4-carboxamido)picolinate] | 100 to 1000 nM
43 | CC1=NN(c2cccnc2)C(=O)C1C(=O)Nc1ccccc1 (stereo not shown) [compound 195, 3-methyl-5-oxo-N-phenyl-1-(pyridin-3-yl)-4,5-dihydro-1H-pyrazole-4-carboxamide] | > 100000 nM
44 | CC1=NN(c2ccccc2)C(=O)C1C(=O)Nc1cscc1C (stereo not shown) [compound 283] | 100 to 1000 nM
45 | CCCn1ccc2ccc(N3N=C(C)C(C(=O)Nc4cccc(C(F)(F)CC)c4)C3=O)cc21 (stereo not shown) [compound 359] | 0.01 to 6 nM
46 | CC1=NN(c2ccccc2)C(=O)C1C(=O)Nc1cccc(CO)c1 (stereo not shown) [compound 111, N-(3-(hydroxymethyl)phenyl)-3-methyl-5-oxo-1-phenyl-4,5-dihydro-1H-pyrazole-4-carboxamide] | 1000 to 100000 nM
47 | COc1ccc(N2N=C(C)C(C(=O)Nc3cccc(-c4ncco4)c3)C2=O)cn1 (stereo not shown) [compound 245] | 6 to 100 nM
48 | CCC(F)(F)c1cccc(NC(=O)C2C(=O)N(c3ccc(OC)cc3)N=C2C)c1 (stereo not shown) [compound 435] | 0.01 to 6 nM
49 | CC1=NN(C2CCS(=O)(=O)C2)C(=O)C1C(=O)Nc1ccccc1 (stereo not shown) [compound 202, 1-(1,1-dioxidotetrahydrothiophen-3-yl)-3-methyl-5-oxo-N-phenyl-4,5-dihydro-1H-pyrazole-4-carboxamide] | > 100000 nM
50 | CC1=NN(c2cccc(C#CCNC(=O)COCCOCCOCCOCCOCC(=O)Nc3cccc4c3C(=O)N(C3CCC(=O)NC3=O)C4=O)c2)C(=O)C1C(=O)Nc1cccc(C(C)(F)F)c1 (stereo not shown) [compound 378] | 0.01 to 6 nM
51 | CC1=NN(c2ccc(OC(F)F)cc2)C(=O)C1C(=O)Nc1cccc(C(C)(O)c2ccccc2)c1 (stereo not shown) [compound 337] | 6 to 100 nM
52 | CC1=NN(c2ccc(OC(F)F)c(-c3ccccc3)c2)C(=O)C1C(=O)Nc1cccc(C(C)(F)F)c1 (stereo not shown) [compound 453] | 0.01 to 6 nM
53 | CC1=NN(c2cccc(C(=O)O)c2)C(=O)C1C(=O)Nc1cccc(-c2ncco2)c1 (stereo not shown) [compound 170] | 6 to 100 nM
54 | CC(=O)NS(=O)(=O)c1cc(N2N=C(C)C(C(=O)Nc3cccc(C(C)(F)F)c3)C2=O)ccc1OC(F)(F)F (stereo not shown) [compound 294] | 6 to 100 nM
55 | CCNC(c1cccc(NC(=O)C2C(=O)N(c3ccccc3)N=C2C)c1)C(F)(F)F (stereo not shown) [compound 176] | 1000 to 100000 nM
56 | CCc1ccsc1NC(=O)C1C(=O)N(c2ccccc2)N=C1C (stereo not shown) [compound 288] | 100 to 1000 nM
57 | CCc1cccc(NC(=O)C2C(=O)N(c3ccc(N)cc3)N=C2C)c1 (stereo not shown) [compound 154, 1-(4-aminophenyl)-N-(3-ethylphenyl)-3-methyl-5-oxo-4,5-dihydro-1H-pyrazole-4-carboxamide] | 100 to 1000 nM
58 | CC1=NN(c2ccccc2)C(=O)C1C(=O)Nc1ccc(O)cc1 (stereo not shown) [compound 205, N-(4-hydroxyphenyl)-3-methyl-5-oxo-1-phenyl-4,5-dihydro-1H-pyrazole-4-carboxamide] | 1000 to 100000 nM
